From PubChem BioAssay (NCI) come the findings set out here.

One may read the TGI as the concentration giving total growth inhibition. Read a low TGI as more potent growth arrest.

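How tested: cells in 96-well plates exposed to compound for 48 hours at five concentrations. TGI: total growth inhibition.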

Assay in all cases: DTP human tumour cell line panel, 48 h
Assay [1] has as its system 786-0 renal.
For assay [2], the system named is ACHN renal.
Assay [3] deals with CCRF-CEM leukemia.
The test system of assay [4] is DMS 114 small cell lung.
Assay [5] deals with HCT-15 colon.
Assay [6] deals with KM12 colon.
Assay [7] concerns M14 melanoma.
Assay [8] has as its system NCI-H23 lung.
In assay [9] the test system is NCI-H522 lung.
Assay [10] has as its system OVCAR-3 ovarian.
Assay [11] has as its system OVCAR-5 ovarian.
Assay [12] concerns OVCAR-8 ovarian.
Assay [13] relates to SF-268 CNS.
Assay [14] has as its system SF-539 CNS.
Assay [15] has as its system SK-MEL-28 melanoma.
The subject of assay [16] is SK-MEL-5 melanoma.
Assay [17] relates to SNB-19 CNS.
The subject of assay [18] is HOP-92 NSCLC.
The subject of assay [19] is SK-OV-3 ovarian.
Assay [20] has as its system T-47D breast.

For the compound `Cn1c(=O)c2c(ncn2CCCCn2ccnc2[N+](=O)[O-])n(C)c1=O`, the TGI in [1], in assay [2], in assay [3], in assay [4], in assay [5] and in assay [6] was more than 100 µM throughout. The TGI in [7], in assay [8], in [9], in assay [10], in [11] and in assay [12] was more than 100 µM throughout. In addition, the concentration for total growth inhibition (TGI) in assay [13], in [14], in [15], in [16] and in assay [17] was more than 100 µM each time.
On to `CNC(=S)NNC1=NCCCN1`, for which the TGI in assay [1], in assay [2], in assay [3], in [5], in assay [18] and in assay [6] was more than 100 µM each time. Moreover, the TGI in assay [7], in assay [8], in [9], in assay [10], in [11] and in assay [12] was more than 100 µM throughout. Moreover, the TGI in assay [13], in assay [14], in [15], in assay [16], in assay [19] and in assay [17] was more than 100 µM in each case. Besides, the TGI in [20] was more than 100 µM.
Take `CCOC(=O)N/N=C/C1=NN(C(=O)OCC)S(=O)C1C` (stereo unspecified): the TGI in assay [1], in assay [2], in assay [3], in assay [5], in assay [18] and in [6] was more than 100 µM in each case. In addition, the TGI in [7], in assay [8], in assay [9], in [10], in assay [11] and in assay [12] was more than 100 µM each time. Further, the TGI in assay [13], in assay [14], in [15], in assay [16], in assay [19] and in [17] was more than 100 µM each time. The compound further yielded a TGI in assay [20] of more than 100 µM.
For the compound `CC(C)=CCC/C(C)=C/CC/C(C)=C/[C@@H]1[C@@H](CO)[C@]1(C)CC/C=C(\C)CCC=C(C)C`, the TGI in assay [1] was 42.9 µM; in assay [2], 31.5 µM; in [3], 45.2 µM; in assay [5] it was more than 100 µM; in [18], 38.2 µM; in [6] it was more than 100 µM. In addition, the TGI in [7] was more than 100 µM; in assay [8], more than 100 µM; in [9], 32.7 µM; in assay [10], more than 100 µM; in assay [11], more than 100 µM; in assay [12], 32.7 µM. The TGI in assay [13] is 40.8 µM; in [14] it was 59 µM; in assay [15], more than 100 µM; in assay [16], more than 100 µM; in [19], more than 100 µM; in [17], more than 100 µM. Also, the TGI in [20] was more than 100 µM.
For `CC(=O)O[C@@]12[C@@H]3O[C@@]4(O)C[C@]5(C)[C@H]6C[C@@](C(C)C)(O[C@H]5c5ccoc5)O[C@H]1[C@]6(C4)O[C@]2(O)C(C)=CC3(C)C`, the concentration for total growth inhibition (TGI) in [1], in [2], in assay [3], in assay [5], in assay [18] and in assay [6] was more than 100 µM in each case. The TGI in [7], in assay [8], in assay [9], in assay [10], in assay [11] and in assay [12] was more than 100 µM throughout. Further, the TGI in assay [13], in [14], in assay [15], in assay [16], in assay [19] and in [17] was more than 100 µM in each case. The TGI in [20] was more than 100 µM.
Consider `CC(=O)OCC1OC(O[C@@H]2C[C@H]3C(C)(C)[C@H](OC(C)=O)CC[C@]3(C)[C@H]3CC[C@@]45C[C@H](O)C[C@H](C)[C@@H]4CC=C5[C@@]32C)C(O)C(O)C1O` (stereo partly specified), for which the TGI in assay [1] is 12.8 µM; in [2] it was 18.5 µM; in assay [3], 13.6 µM; in assay [5], 25.5 µM; in [18], 15 µM; in [6] it was 7.59 µM. In addition, the TGI in [7] worked out at 14.8 µM; in assay [8], 18.3 µM; in assay [9] it was 9.28 µM; in [10] it was 10.6 µM; in [11], 6.42 µM; in assay [12], 17.4 µM. Moreover, the total growth inhibition concentration (TGI) amounted to 15.6 µM in [13]; 19.2 µM in assay [14]; 19.4 µM in assay [15]; 8.65 µM in assay [16]; 22 µM in assay [19]; 14.9 µM in [17]. For the same compound, in [20], the TGI stood at 13.7 µM.
Turning to `Cc1cc2c(cc1C)C(=O)c1ncccc1C2=O`, the TGI in [1], in assay [2], in assay [3], in [5], in [18] and in assay [6] was more than 100 µM in each case. Further, the TGI is more than 100 µM in [7]; 50.9 µM in assay [8]; 43.9 µM in assay [9]; 9.65 µM in assay [10]; more than 100 µM in assay [11]; more than 100 µM in assay [12]. Further, the TGI in assay [13] was more than 100 µM; in assay [14], 90 µM; in assay [15] it was more than 100 µM; in assay [16] it was 23.2 µM; in [19], more than 100 µM; in [17], more than 100 µM. For the same compound, in assay [20], the TGI was more than 100 µM.
